Experiment [1] deals with SUDHL10. The experiment in a line: Induction of cytotoxicity (CellTiter-Glo, 5 h), SUDHL10. Conditions: Homo sapiens, SU-DHL10, 5 h, read-out: Cytotox SUDHL10 [M] (median), SUDHL10 cells, cytotoxicity induction, CellTiter-Glo, 5 h incubation, median.
Experiment [2] has as its system SUDHL10. The experiment in a line: Induction of caspase-3/7 activity (Caspase-Glo 3/7), SUDHL10. The class given is cell-based. Conditions: Homo sapiens, SU-DHL10, 3 h, caspase-3/7 induction, SUDHL10 cells, 3 h treatment; median. A digest of the protocol:
(§1)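 A 3 h, 37 °C compound incubation precedes the Caspase-Glo 3/7 read. After subtracting medium-only signal, EC50s are fitted against the reference compound's maximal caspase induction.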

Experiment [3] has as its system SUDHL5. The experiment in a line: Induction of caspase-3/7 activity (Caspase-Glo 3/7), SUDHL5. Format: cell-based. Conditions: Homo sapiens, SU-DHL-5, 3 h, caspase-3/7 induction, SUDHL5 cells, 3 h treatment; median. A digest of the protocol: as §1
For experiment [4], the target named is MCL-1 (Homo sapiens, UniProt Q07820). The experiment in a line: Protein-protein interaction assay MCL-1/Noxa BH3 peptide (MCL-1 assay), TR-FRET. Format: binding. Conditions: MBP-MCL-1 / Noxa BH3-derived peptide, median. A digest of the protocol:
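Steady-state competition, MCL-1/Noxa BH3, TR-FRET readout; 1 nM MBP-MCL-1, 11-point dose series 0.1 nM–20 μM; overnight 4 °C equilibration; 4-parameter IC50.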

Experiment [5] deals with A2780. The experiment in a line: Anti-proliferative effect (CellTiter-Glo, 72 h), A2780. Format: cell-based. Conditions: Homo sapiens, A2780, 72 h, A2780 cells, median, read-out: IC50 antiproliferation assay A2780 [M] (median). A digest of the protocol:
(§2)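 Endpoint: CellTiter-Glo luminescence, 10 min after reagent addition. Treatment ran 72 h at 37 °C, humidified. Growth was referenced to a separately plated day 0 plate.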
(In ATP-based viability assays light output follows the ATP content of the culture.)

For experiment [6], the system named is SUDHL10. The experiment in a line: Anti-proliferative effect (CellTiter-Glo, 72 h), SUDHL10. Format: cell-based. Conditions: Homo sapiens, SU-DHL10, 72 h, SUDHL10 cells, antiproliferation, 72 h incubation, median, read-out: Antiproli SUDHL10 [M] (median). A digest of the protocol:
as §2

For experiment [7], the system named is OPM2. The experiment in a line: Anti-proliferative effect (CellTiter-Glo, 72 h), OPM2. The class given is cell-based. Conditions: Homo sapiens, OPM-2, 72 h, OPM2 cells, median, read-out: IC50 antiproliferation assay OPM2 [M] (median). The method, then:
Assessment of the Anti-Proliferative Effect of Compounds in Different Cell Lines
The impact of compounds on the proliferation of different cell lines was assessed using the CellTiter-Glo® Luminescent Cell Viability reagent from Promega (G7573). Of note, SUDHL10 and SUDHL5 (DLBCL), NCI-H929 (Multiple Myeloma), A2780 (ovarian carcinoma) as well as MV-4-11(AML) cells are sensitive to MCL-1 inhibition.
In parallel, cells were plated in a reference (day 0) plate for time zero determination.
Rim wells were excluded. The cells were incubated for 72 h hours in a humidified incubator at 37° C. The day 0 plate was measured by adding 30 μl/well of CTG solution (CellTiter-Glo® Luminescent Cell Viability reagent, Promega G7573) to time zero wells in the reference plate followed by a 10 minutes incubation and luminescence reading at 0.1 ms, using the PHERAstar FS microplate reader (BMG Labtech).
After 72 h incubation, the treated plates were measured in the same way as the day 0 plate mentioned above.

Experiment [8] relates to SUDHL5. The experiment in a line: Induction of cytotoxicity (CellTiter-Glo, 5 h), SUDHL5. Conditions: Homo sapiens, SU-DHL-5, 5 h, read-out: Cytotox SUDHL5 [M] (median), SUDHL5 cells, cytotoxicity induction, CellTiter-Glo, 5 h incubation, median.

Among the data in patent US10981932B2, “Macrocyclic indole derivatives” (Bayer Aktiengesellschaft, priority 2016, dated 2021) are IC50 and EC50 values, retold here.

MCL-1, sequence (Q07820 whole entry): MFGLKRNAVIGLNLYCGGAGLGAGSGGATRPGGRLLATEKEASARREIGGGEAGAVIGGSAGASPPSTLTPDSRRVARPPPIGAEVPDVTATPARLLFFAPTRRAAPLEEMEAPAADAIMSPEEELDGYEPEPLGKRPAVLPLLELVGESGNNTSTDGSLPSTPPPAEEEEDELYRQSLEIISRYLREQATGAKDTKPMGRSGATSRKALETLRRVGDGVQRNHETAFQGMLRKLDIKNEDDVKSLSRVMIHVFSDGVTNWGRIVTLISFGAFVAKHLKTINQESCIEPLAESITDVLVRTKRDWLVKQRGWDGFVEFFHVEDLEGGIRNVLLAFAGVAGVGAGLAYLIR

Take `Cc1nn(C)c2c1-c1cccc3c(CCCOc4cccc5c4CCCC5)c(C(=O)O)n(c13)CCCOC2` (racemic) [Example 005, (rac)-9,11-dimethyl-1-[3-(5,6,7,8-tetrahydronaphthalen-1-yloxy)propyl]-5,6,8,9-tetrahydro-4H-pyrazolo[4′,3′:8,9][1,5]oxazecino[7,6,5-hi]indole-2-carboxylic Acid]: the IC50 was > 3.3e-05 M in experiment [1]; 66 nM in experiment [4]; > 3.3e-05 M in experiment [5]; > 3.3e-05 M in experiment [6]; > 3.3e-05 M in experiment [7]; > 3.3e-05 M in experiment [8]. Besides, the EC50 in experiment [2] and in experiment [3] was > 33 µM throughout.

Take `Cc1ccc2cccc(OCCCc3c(C(=O)O)n4c5c(cccc35)-c3c(C)nn(C)c3COCCCC4)c2c1` (racemic) [Example 012, (rac)-1,3-dimethyl-7-{3-[(7-methyl-1-naphthyl)oxy]propyl}-1,10,11,12,13,15-hexahydropyrazolo[4′,3′:9,10][1,6]oxazacycloundecino[8,7,6-hi]indole-8-carboxylic Acid]: the IC50 in experiment [1] is > 3.3e-05 M; in experiment [4] it was 27.4 nM; in experiment [5] it was 3.13e-05 M; in experiment [6], 7.15e-06 M; in experiment [7], 2.17e-05 M; in experiment [8], 3.14e-05 M. For the same molecule, the EC50 in experiment [2] and in experiment [3] was > 33 µM throughout.

Consider `Cc1cc(OCCCc2c(C(=O)O)n3c4c(cccc24)-c2c(C)nn(C)c2COCCC3)cc(C)c1Cl` (racemic) [Example 013, (rac)-1-[3-(4-chloro-3,5-dimethylphenoxy)propyl]-9,11-dimethyl-5,6,8,9-tetrahydro-4H-pyrazolo[4′,3′:8,9][1,5]oxazecino[7,6,5-hi]indole-2-carboxylic Acid], for which the IC50 in experiment [1] is > 3.3e-05 M; in experiment [4] it was 34.5 nM; in experiment [5] it was 3.27e-05 M; in experiment [6], 4.83e-06 M; in experiment [7] it was > 3.3e-05 M; in experiment [8] it was > 3.3e-05 M. For the same molecule, the EC50 in experiment [2] and in experiment [3] was > 33 µM in each case.

Regarding `Cc1nn(C)c2c1-c1cccc3c(CCCOc4ccccc4)c(C(=O)O)n(c13)CCCCOC2` (racemic) [Example 016, (rac)-1,3-dimethyl-7-(3-phenoxypropyl)-1,10,11,12,13,15-hexahydropyrazolo[4′,3′:9,10][1,6]oxazacycloundecino[8,7,6,6-hi]indole-8-carboxylic Acid], the IC50 is > 3.3e-05 M in experiment [1]; 495 nM in experiment [4]; > 3.3e-05 M in experiment [5]; > 3.3e-05 M in experiment [6]; > 3.3e-05 M in experiment [7]; > 3.3e-05 M in experiment [8]. The EC50 in experiment [2] and in experiment [3] was > 33 µM throughout.

Regarding `COCCn1nc2c(c1CN1CCOCC1)-c1cccc3c(CCCOc4cccc5ccccc45)c(C(=O)O)n(c13)CCCN(C)C2` (racemic) [Example 056, (rac)-10-(2-methoxyethyl)-7-methyl-11-(morpholin-4-ylmethyl)-1-[3-(naphthalen-1-yloxy)propyl]-4,5,6,7,8,10-hexahydropyrazolo[3′,4′:7,8][1,5]diazecino[9,10,1-hi]indole-2-carboxylic Acid], the IC50 in experiment [1] was > 3.3e-05 M; in experiment [4], 49 nM; in experiment [5] it was > 3.3e-05 M; in experiment [6] it was 2e-05 M; in experiment [7], > 3.3e-05 M; in experiment [8], > 3.3e-05 M. Also, the EC50 in experiment [2] and in experiment [3] was > 33 µM each time.

In the case of `Cn1nc2c(c1CN1CCOCC1)-c1cccc3c(CCCOc4cccc5ccccc45)c(C(=O)O)n(c13)C/C=C\COC2` (racemic) [Example 066, (rac)-(11Z)-2-Methyl-3-(morpholin-4-ylmethyl)-7-[3-(naphthalen-1-yloxy)propyl]-2,10,13,15-tetrahydropyrazolo[4′,3′:9,10][1,6]oxazacycloundecino[8,7,6-hi]indole-8-carboxylic Acid], the IC50 in experiment [1] is > 3.3e-05 M; in experiment [4], 28.5 nM; in experiment [5] it was 2.8e-05 M; in experiment [6], 6.96e-06 M; in experiment [7], > 3.3e-05 M; in experiment [8], > 3.3e-05 M. In addition, the EC50 (as a rule, the concentration giving half of the maximal effect) is 29 µM in experiment [2] and > 33 µM in experiment [3].

`Cc1c2c(nn1C)CN(C)CCCCn1c(C(=O)O)c(CCCOc3cccc4ccccc34)c3cccc-2c31` (racemic) [Example 067, (rac)-2,3,14-trimethyl-7-[3-(naphthalen-1-yloxy)propyl]-10,11,12,13,14,15-hexahydro-2H-pyrazolo[3′,4′:8,9][1,6]diazacycloundecino[10,11,1-hi]indole-8-carboxylic Acid]: the IC50 in experiment [1] was > 3.3e-05 M; in experiment [4], 22.1 nM; in experiment [5] it was 2.72e-06 M; in experiment [6], 5.38e-06 M; in experiment [7], 1.48e-05 M; in experiment [8], > 3.3e-05 M. Moreover, the EC50 in experiment [2] and in experiment [3] was > 33 µM throughout.

For `COc1cc2cc(c1)-c1cccc3c(CCCOc4cccc5c4CCCC5)c(C(=O)O)n(c13)CCCCCO2` (racemic) [Example 116, (rac)-12-Methoxy-1-[3-(5,6,7,8-tetrahydronaphthalen-1-yloxy)propyl]-5,6,7,8-tetrahydro-4H-10,14-(metheno)[1,7]oxazacyclotetradecino[9,8,7-hi]indole-2-carboxylic Acid], the IC50 is > 3.3e-05 M in experiment [1]; 8280 nM in experiment [4]; 2.21e-05 M in experiment [5]; > 3.3e-05 M in experiment [6]; 1.79e-05 M in experiment [7]; > 3.3e-05 M in experiment [8]. Moreover, the EC50 in experiment [2] and in experiment [3] was > 33 µM each time.

In the case of `Cc1ccc2cc1-c1cccc3c(CCCOc4cccc5ccccc45)c(C(=O)O)n(c13)CCOCCO2` (racemic) [Example 117, (rac)-13-Methyl-1-[3-(naphthalen-1-yloxy)propyl]-4,5,7,8-tetrahydro-10,14-(metheno)[1,4,7]dioxazacyclotetradecino[9,8,7-hi]indole-2-carboxylic Acid], the IC50 is > 3.3e-05 M in experiment [1]; 633 nM in experiment [4]; > 3.3e-05 M in experiment [5]; > 3.3e-05 M in experiment [6]; > 3.3e-05 M in experiment [7]; > 3.3e-05 M in experiment [8]. The EC50 in experiment [2] and in experiment [3] was > 33 µM in each case.

Regarding `CN1CCCCn2c(C(=O)O)c(CCCOc3cccc4ccccc34)c3cccc(c32)-c2cnn(C)c2C1` (racemic) [Example 127, (rac)-1,14-dimethyl-7-[3-(naphthalen-1-yloxy)propyl]-10,11,12,13,14,15-hexahydro-1H-pyrazolo[3′,4′:8,9][1,6]diazacycloundecino[10,11,1-hi]indole-8-carboxylic Acid], the IC50 was > 3.3e-05 M in experiment [1]; 14.4 nM in experiment [4]; 2.44e-05 M in experiment [5]; 9.32e-06 M in experiment [6]; > 3.3e-05 M in experiment [7]; > 3.3e-05 M in experiment [8]. Further, the EC50 in experiment [2] and in experiment [3] was > 33 µM each time.

Regarding `Cn1ncc2c1COCCCCn1c(C(=O)O)c(CCCOc3cccc4ccccc34)c3cccc-2c31` (racemic) [Example 128, (rac)-1-methyl-7-[3-(naphthalen-1-yloxy)propyl]-1,10,11,12,13,15-hexahydropyrazolo[4′,3′:9,10][1,6]oxazacycloundecino[8,7,6-hi]indole-8-carboxylic Acid], the IC50 in experiment [1] is > 3.3e-05 M; in experiment [4], 40.3 nM; in experiment [5], 3.04e-05 M; in experiment [6] it was 1.29e-05 M; in experiment [7] it was > 3.3e-05 M; in experiment [8] it was > 3.3e-05 M. Also, the EC50 in experiment [2] and in experiment [3] was > 33 µM throughout.
